14 molecules from ChEMBL document CHEMBL5214955, “Design, synthesis and activity evaluation of Hedgehog inhibitor Itraconazole derivatives in A549 cells” (Bioorg Med Chem Lett, 2022) can be followed below.

Active and inactive are the calls of the source. No cut-off for these calls is given here.

Usually IC50 stands for the concentration that inhibits the measured activity by half.

The subject of data set [1] is A549. Kind of data set: Antiproliferative activity against human A549 cells assessed as inhibition of cell proliferation incubated for 48 hrs by MTT assay. Type of data set: functional, cell-based. The settings on record: A549, 48 h. A general note: Formazan colour is commonly taken as a measure of viable cells.
For a further data set, the system named is HepG2. Kind of data set: Antiproliferative activity against human HepG2 cells assessed as inhibition of cell proliferation incubated for 48 hrs by MTT assay. Type of data set: functional, cell-based. The settings on record: HepG2, 48 h.
A short description of data set [2]: Cytotoxicity against human L02 cells assessed as inhibition of cell proliferation incubated for 48 hrs by MTT assay. Type of data set: toxicity, cell-based.
A short description of data set [3]: Inhibition of hedgehog signalling pathway in human A549 cells assessed as reduction in Gli gene expression incubated for 24 hrs by qPCR analysis. The following applies: A549, 24 h. Type of data set: cell-based. For orientation: In qPCR the cycle at which signal appears reflects the starting amount.
The subject of data set [4] is A549. The data set is described as follows: Induction of apoptosis in human A549 cells assessed as necrotic cells at 30 uM incubated for 24 hrs by Annexin V-FITC/PI staining based flow cytometric analysis (reference value: 0.084%). Type of data set: functional. In general terms: A flow cytometer gives signals particle by particle.
For data set [5], the system named is A549. The data set is described as follows: Induction of apoptosis in human A549 cells assessed as early apoptotic cells at 30 uM incubated for 24 hrs by Annexin V-FITC/PI staining based flow cytometric analysis (reference value: 0.316%). Type of data set: functional.
Data set [6] deals with A549. The data set is described as follows: Induction of apoptosis in human A549 cells assessed as late apoptotic cells at 30 uM incubated for 24 hrs by Annexin V-FITC/PI staining based flow cytometric analysis (reference value: 1.40%). Type of data set: functional.
In data set [7] the test system is A549. The data set is described as follows: Induction of apoptosis in human A549 cells assessed as viable cells at 30 uM incubated for 24 hrs by Annexin V-FITC/PI staining based flow cytometric analysis (reference value: 98.2%). The settings on record: read-out: Activity. Type of data set: functional.
The test system of data set [8] is A549. Kind of data set: Antiproliferative activity against human A549 cells assessed as inhibition of clone formation at 10 uM incubated for 1 day followed by culture in new medium for 7 days by crystal violet staining based assay relative to control. Type of data set: functional. The settings on record: time 8 day. Also noted: scale not given: the % may be the effect or the level left.

In data set [9] the test system is A549. Kind of data set: Induction of intracellular reactive oxygen species production in human A549 cells assessed as increase in number ROS positive cells at 30 uM and measured after 24 hrs by H2DCFH-DA staining based flow cytometric analysis (Rvb=1.10%). Type of data set: functional.
Data set [10] concerns A549. The data set is described as follows: Induction of mitochondrial membrane potential loss in human A549 cells assessed as assessed as proportion of MMP decreased cells at 30 uM and measured after 24 hrs by JC-1 staining based flow cytometry assay (reference value: 7.50%). Type of data set: functional. Also noted: scale not given: the % may be the effect or the level left.

Data set [11] concerns A549. Kind of data set: Induction of intracellular reactive oxygen species production in human A549 cells assessed as increase in number ROS positive cells at 30 uM and measured after 4 hrs by H2DCFH-DA staining based flow cytometric analysis. Type of data set: functional, cell-based.
In data set [12] the test system is A549. Kind of data set: Induction of intracellular reactive oxygen species production in human A549 cells assessed as increase in number ROS positive cells at 30 uM and measured after 4 hrs by DCFH-DA probe based confocal microscopy. Type of data set: functional, cell-based.
The subject of data set [13] is A549. Kind of data set: Induction of mitochondrial membrane potential loss in human A549 cells assessed as assessed as proportion of MMP decreased cells at 30 uM and measured after 4 hrs by JC-1 staining based flow cytometry assay. Type of data set: functional, cell-based.

Consider `O=C(Nc1ccc(N2CCN(c3ccc(OC[C@@H]4CO[C@@](Cn5cncn5)(c5ccc(Cl)cc5Cl)O4)cc3)CC2)cc1)c1cccs1`, for which the IC50 in the data set with A549 [1] was 4.33 µM; in the data set on HepG2, 9.77 µM. In data set [2], the IC50 at 48 h is above 50 µM.
Turning to `CCC(C)n1ncn(-c2ccc(N3CCN(c4ccc(OCC5COC(Cn6cncn6)(c6ccc(Cl)cc6Cl)O5)cc4)CC3)cc2)c1=O` (stereo unspecified) [ITRACONAZOLE], the concentration for half-maximal inhibition (IC50) in data set [3] was found to be 0.125 µM; in the data set with A549 [1], 3 µM; in the data set with HepG2 it was 7.87 µM. Also, the IC50 at 48 h in [2] is above 50 µM. Also, the Activity was 3.84% in the data set on A549 [4]; 7.65% with A549 [5]; 34.6% in the data set with A549 [6]; 34% with A549 [8]; 38.3% in the data set with A549 [9]; 36.3% in the data set with A549 [10]. For the same molecule, in the data set with A549 [7], the viability at 30 µM stood at 53.9%.
Take `O=C(CCCc1ccccc1)Nc1ccc(N2CCN(c3ccc(OC[C@@H]4CO[C@@](Cn5cncn5)(c5ccc(Cl)cc5Cl)O4)cc3)CC2)cc1`: the IC50 turned out to be 0.782 µM in data set [3], 3.78 µM in the data set with A549 [1] and 10.8 µM with HepG2. The IC50 at 48 h in [2] is above 50 µM.
On to `O=C(Cc1cccs1)Nc1ccc(N2CCN(c3ccc(OC[C@@H]4CO[C@@](Cn5cncn5)(c5ccc(Cl)cc5Cl)O4)cc3)CC2)cc1`, for which the IC50 in data set [3] stood at 0.251 µM; in the data set with A549 [1], 2.13 µM; with HepG2 it was 5.05 µM. Besides, the IC50 at 48 h in data set [2] is above 50 µM. In addition, the Activity in the data set with A549 [4] is 1.89%; in the data set with A549 [5], 7.54%; in the data set on A549 [6], 46.1%; in the data set with A549 [8], 28%; with A549 [9], 53%; with A549 [10] it was 44.9%. In addition, the viability at 30 µM in the data set with A549 [7] worked out at 44.5%. Also, the outcome in the data set on A549 [11], in the data set on A549 [12] and in the data set with A549 [13] was Active.
As to `O=C(CCc1ccccc1)Nc1ccc(N2CCN(c3ccc(OC[C@@H]4CO[C@@](Cn5cncn5)(c5ccc(Cl)cc5Cl)O4)cc3)CC2)cc1`, the results for the IC50 (in [3]; with A549 [1]; with HepG2) were 0.089 µM, 2.06 µM and 5.34 µM, respectively. Also, the IC50 at 48 h in data set [2] is above 50 µM. In addition, the Activity with A549 [4] came to 1.07%; with A549 [5] it was 12.4%; in the data set on A549 [6] it was 51.8%; in the data set on A549 [8], 22%; in the data set on A549 [9], 62.9%; with A549 [10], 55.4%. Also, the viability at 30 µM in the data set with A549 [7] stood at 34.7%. For the same molecule, the result with A549 [11], in the data set with A549 [12] and in the data set on A549 [13] was Active.
Regarding `CCC(=O)Nc1ccc(N2CCN(c3ccc(OC[C@@H]4CO[C@@](Cn5cncn5)(c5ccc(Cl)cc5Cl)O4)cc3)CC2)cc1`, the IC50 in [3] came out at 0.873 µM; in the data set on A549 [1], 2.55 µM; with HepG2, 5.46 µM. In addition, in [2], the IC50 at 48 h was above 50 µM.
For `O=C(CCCCc1ccccc1)Nc1ccc(N2CCN(c3ccc(OC[C@@H]4CO[C@@](Cn5cncn5)(c5ccc(Cl)cc5Cl)O4)cc3)CC2)cc1` the same measures were 0.457 µM, 2.61 µM, 7.01 µM and above 50 µM.
With `CCCCC(=O)Nc1ccc(N2CCN(c3ccc(OC[C@@H]4CO[C@@](Cn5cncn5)(c5ccc(Cl)cc5Cl)O4)cc3)CC2)cc1`, the IC50 with A549 [1] was 5.34 µM; in the data set on HepG2 it was 14.1 µM. Besides, in [2], the IC50 at 48 h is above 50 µM.
As to `Cc1ccc(C(=O)Nc2ccc(N3CCN(c4ccc(OC[C@@H]5CO[C@@](Cn6cncn6)(c6ccc(Cl)cc6Cl)O5)cc4)CC3)cc2)o1`, the values for the IC50 in the data set on A549 [1] and in the data set with HepG2 were 4.75 µM and 8.7 µM, respectively. Further, in [2], the 50% inhibitory concentration (IC50) at 48 h was above 50 µM.
In the case of `O=C(Nc1ccc(N2CCN(c3ccc(OC[C@@H]4CO[C@@](Cn5cncn5)(c5ccc(Cl)cc5Cl)O4)cc3)CC2)cc1)c1cccc(F)c1`, the IC50 in the data set with A549 [1] turned out to be 6.64 µM; with HepG2 it was 10.8 µM. In addition, the IC50 at 48 h in data set [2] was above 50 µM.
As for `O=C(Nc1ccc(N2CCN(c3ccc(OC[C@@H]4CO[C@@](Cn5cncn5)(c5ccc(Cl)cc5Cl)O4)cc3)CC2)cc1)c1ccc(F)c(F)c1`, the IC50 was 0.844 µM in data set [3], 8.69 µM in the data set on A549 [1] and 19.9 µM with HepG2. For the same molecule, the half-inhibitory concentration (IC50) at 48 h in [2] was above 50 µM.
As to `CCCC(=O)Nc1ccc(N2CCN(c3ccc(OC[C@@H]4CO[C@@](Cn5cncn5)(c5ccc(Cl)cc5Cl)O4)cc3)CC2)cc1`, the IC50 was determined as 2.99 µM with A549 [1] and 9.93 µM in the data set on HepG2. Moreover, the IC50 at 48 h in data set [2] was above 50 µM.
On to `O=C(CC1CCOCC1)Nc1ccc(N2CCN(c3ccc(OC[C@@H]4CO[C@@](Cn5cncn5)(c5ccc(Cl)cc5Cl)O4)cc3)CC2)cc1`, for which the values for the IC50 in the data set with A549 [1] and in the data set on HepG2 were 10 µM and 21.1 µM, respectively. Further, the IC50 at 48 h in data set [2] is above 50 µM.
For `O=C(Nc1ccc(N2CCN(c3ccc(OC[C@@H]4CO[C@@](Cn5cncn5)(c5ccc(Cl)cc5Cl)O4)cc3)CC2)cc1)c1ccco1` the same measures were 10.5 µM, 22.3 µM and above 50 µM.
